According to patent US11116757B2 (priority 2015, dated 2021):

target: DCN1-UBC12 interaction (Homo sapiens (Human), UniProt Q96GG9); assay: biochemical; assay type: binding; conditions: Table 4, commercial compounds; read-out: TR-FRET IC50
Sequence (Q96GG9 60-248 limits assumed): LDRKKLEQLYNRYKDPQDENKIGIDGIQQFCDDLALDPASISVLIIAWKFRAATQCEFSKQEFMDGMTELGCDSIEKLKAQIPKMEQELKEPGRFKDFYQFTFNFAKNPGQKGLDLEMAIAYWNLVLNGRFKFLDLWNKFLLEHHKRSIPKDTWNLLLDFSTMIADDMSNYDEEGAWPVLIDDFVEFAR

| Compound | IC50 [µM] |
| --- | --- |
| O=C(Nc1cccc(C(F)(F)F)c1)C1CCN(C(=O)c2ccco2)CC1 [C68] | > 75.7 |
| CCc1cccc(NC(=O)C2CCN(C(=O)c3cnn(-c4ccccc4)c3-n3cccc3)CC2)c1 [C69] | > 81.4 |
| COc1ccc(NC(=O)C2CCN(C(=O)c3cnn(-c4ccccc4)c3-n3cccc3)CC2)cc1 [C49] | > 67.6 |
| COc1cccc(NC(=O)C2CCN(C(=O)c3cnn(-c4ccccc4)c3-n3cccc3)CC2)c1 [C8] | > 67.6 |
| COc1ccc(C(=O)N2CCC(C(=O)Nc3cccc(C(F)(F)F)c3)CC2)cc1 [C1, 1-(4-Methoxybenzoyl)-N-(3-(Trifluoromethyl)Phenyl)Piperidine-4-Carboxamide] | 8.07 |
| O=C(Nc1ccc(Cl)c(C(F)(F)F)c1)C1CCN(C(=O)c2ccc(F)cc2)CC1 [C20] | > 67.6 |
| O=C(Nc1ccc(Cl)c(C(F)(F)F)c1)C1CCN(C(=O)c2ccc(Br)cc2)CC1 [C29] | > 67.6 |
| Cc1ccc(NC(=O)C2CCN(C(=O)c3ccccc3C)CC2)cc1C [C22] | > 67.6 |
| O=C(Nc1ccc(F)c(Cl)c1)C1CCN(C(=O)c2ccc(F)cc2)CC1 [C18] | > 67.6 |

same assay, conditions: Table 6, commercial compounds; read-out: TR-FRET IC50

| Compound | IC50 [µM] |
| --- | --- |
| C=CCN(CC=C)C(=O)c1cnn(-c2nccc(-c3cccs3)n2)c1COC [E39] | > 67.6 |
| CCOC(=O)CCNC(=O)c1cnn(-c2ncc(C)c(-c3cccs3)n2)c1C [E56] | > 67.6 |
| CC(C)N1CCN(C(=O)c2cnn(-c3nccc(-c4cccs4)n3)c2C2CC2)CC1 [E43] | > 67.6 |
| CC(C)c1c(C(=O)N2CCN(C(C)C)CC2)cnn1-c1nccc(-c2cccs2)n1 [E62] | > 77 |
| CCN(CC)CCNC(=O)c1cnn(-c2nccc(-c3cccs3)n2)c1C [E54] | > 67.6 |
| Cc1c(C(=O)NCC(C)(C)CN(C)C)cnn1-c1nccc(-c2cccs2)n1 [E47] | > 67.6 |
| CC(C)c1c(C(=O)N2CCN(CCO)CC2)cnn1-c1nccc(-c2cccs2)n1 [E7] | 21.3 |
| CCN(CC)CCNC(=O)c1cnn(-c2nccc(-c3cccs3)n2)c1C(C)C [E19] | 42.1 |
| Cc1cnc(-n2ncc(C(=O)N3CCN(C(C)C)CC3)c2C)nc1-c1cccs1 [E35] | > 67.6 |
| CCN(CC)CCN(CC)C(=O)c1cnn(-c2nccc(-c3cccs3)n2)c1C(C)C [E5] | 17.4 |
| CN(C)CC(C)(C)CNC(=O)c1cnn(-c2nccc(-c3cccs3)n2)c1C1CC1 [E37] | > 67.6 |
| C=CCNC(=O)c1cnn(-c2ncc(C)c(-c3cccs3)n2)c1C [E59] | > 67.6 |
| Cc1cnc(-n2ncc(C(=O)N3CCN(C(C)C)CC3)c2C2CC2)nc1-c1cccs1 [E40] | > 67.6 |

same assay, conditions: Table 7, commercial compounds; read-out: TR-FRET IC50

| Compound | IC50 [µM] |
| --- | --- |
| COc1ccc(C2c3c(C)nn(C)c3NC(=O)C2NC(=O)c2ccc(OC)c(OC)c2)cc1F (stereo not shown) [F20] | > 67.6 |
| COc1ccc(C(=O)NC2C(=O)Nc3c(c(C)nn3C)C2c2ccc(Cl)c(Cl)c2)cc1OC (stereo not shown) [F30] | > 67.6 |
| Cc1cccc(C2c3c(C)nn(C)c3NC(=O)C2NC(=O)c2ccccc2)c1 (stereo not shown) [F33] | > 80.3 |
| Cc1cccc(C(=O)NC2C(=O)Nc3c(c(C)nn3-c3ccccc3)C2c2ccc(C#N)cc2)c1 (stereo not shown) [F5] | 35.1 |
| Cc1nn(C)c2c1C(c1cccc(F)c1)C(NC(=O)c1ccc(Cl)cc1)C(=O)N2 (stereo not shown) [F10] | > 67.6 |
| Cc1cccc(C(=O)NC2C(=O)Nc3c(c(C)nn3C)C2c2cccc(C)c2)c1 (stereo not shown) [F32] | > 67.6 |

same assay, conditions: read-out: TR-FRET IC50

| Compound | IC50 [µM] |
| --- | --- |
| COc1ccc(C(=O)N2CCC(c3nc4ccccc4s3)CC2)cc1OC [D19] | > 62.9 |
| CCCN1CCC(NC(=O)Nc2ccc(C)c(Cl)c2)CC1 [B34] | > 55.5 |
| COc1ccc(CN(C(=O)Nc2ccccc2C)C2CCN(C(C)=O)CC2)cc1 [B84] | > 67.6 |
| CCCC(C)N1CCC(N(Cc2ccccc2)C(=O)Nc2ccc(Cl)c(C(F)(F)F)c2)CC1 (stereo not shown) [A64] | 0.414 |
| Cn1ccc2cc(CN3CCC(N(Cc4ccccc4)C(=O)Nc4cc(F)cc(C(F)(F)F)c4)CC3)ccc21 [A205] | > 20.8 |
| O=C(Nc1ccc2c(c1)OCO2)NC1CCN(Cc2ccccc2)CC1 [B22] | > 103 |
| CCCC(C)N1CCC(N(Cc2ccccc2)C(=O)Nc2cccc3cnccc23)CC1 (stereo not shown) [A244] | > 53.6 |
| 1-Benzyl-1-(1-(Cyclohexylmethyl)Piperidin-4-yl)-3-(3-(Trifluoromethyl)Phenyl)Urea [A149] | 5.25 |
| CCCC(C)N1CCC(N(Cc2ccccc2)C(=O)Nc2ccc(Br)cc2)CC1 (stereo not shown) [A5] | 0.0559 |
| CCCN1CCC(N(Cc2ccccc2)C(=O)Nc2cccc(C(F)(F)F)c2)CC1 [A85, 1-Benzyl-1-(1-Propylpiperidin-4-yl)-3-(3-(Trifluoromethyl)Phenyl)Urea] | 0.98 |
| COc1ccc(C)cc1NC(=O)N(Cc1ccc(C)o1)C1CCN(Cc2ccccc2)CC1 [B95] | > 67.6 |
| COc1ccc(C(=O)N2CCC(NCc3ccc(C)cc3)CC2)cc1 [A194] | > 10.3 |
| CC(=O)N1CCC(N(Cc2ccco2)C(=O)Nc2ccccc2C(F)(F)F)CC1 [B76] | > 67.6 |
| C=CC(=O)Nc1cccc(CN(C(=O)Nc2cccc(C(F)(F)F)c2)C2CCN(C(C)CCC)CC2)c1 (stereo not shown) [drawing 840] | 0.11 |
| C=CS(=O)(=O)NCc1cccc(CN(C(=O)Nc2cccc(C(F)(F)F)c2)C2CCN(C(C)CCC)CC2)c1 (stereo not shown) [drawing 849] | < 0.01 |
| CCCCN1CCC(N(Cc2ccccc2)C(=O)Nc2cc(F)cc(F)c2)CC1 [A142] | 4.26 |
| CCN1CCC(N(Cc2ccco2)C(=O)Nc2ccc(OC)c(OC)c2)CC1 [B77] | > 67.6 |
| O=C(Nc1ccc(CN2CCOCC2)cc1)Nc1cccc(C(F)(F)F)c1 [B108] | > 72.8 |
| O=C(Nc1ccc(Cl)cc1)NC1CCN(Cc2ccccc2)CC1 [B58] | > 67.6 |
| CN1CC(NC(=O)NC2CCN(Cc3ccccc3)CC2)c2ccccc2C1=O (stereo not shown) [B17] | 55.6 |

| Compound | IC50 [µM] |
| --- | --- |
| CCCC(C)N1CCC(N(Cc2ccccc2)C(=O)Nc2cccc(OC(F)(F)F)c2)CC1 (stereo not shown) [A12] | 0.0827 |
| CCCC(C)N1CCC(N(Cc2ccccc2)C(=O)Nc2nc3c(OC)cccc3s2)CC1 (stereo not shown) [A301] | > 86.1 |
| CC1CC(NC(=O)NC2CCCNC2=O)CCN1Cc1ccccc1 (stereo not shown) [B36] | > 57.8 |
| CC1CN(Cc2ccccc2)CCC1N(C)C(=O)Nc1cn[nH]c1 (stereo not shown) [B24] | > 15.2 |
| COc1ccc(C(=O)NCC(=O)N2CCC(c3nc4ccccc4s3)CC2)cc1OC [D26] | > 67.6 |
| O=C(CN1CCC(Cc2ccccc2)CC1)Nc1cc(C(F)(F)F)cc(C(F)(F)F)c1 [B118] | > 78.5 |
| O=C(Nc1cc(C(F)(F)F)ccc1Cl)NC1CCN(Cc2ccccc2)CC1 [B101] | > 69.8 |
| O=C(Nc1ccccc1C(F)(F)F)NC1CCN(Cc2ccccc2)CC1 [B103] | > 70.7 |
| O=C(CN1CCN(c2ccccc2)CC1)Nc1cccc(C(F)(F)F)c1 [B37] | > 60.6 |
| CCCC(C)N1CCC(N(Cc2ccccc2)C(=O)Nc2ccccc2I)CC1 (stereo not shown) [A285] | > 72.4 |
| COc1ccc(CN(C(=O)Nc2ccccc2Cl)C2CCN(C(C)=O)CC2)cc1 [B13] | 37.5 |
| CCCC(C)N1CCC(N(Cc2ccccc2)C(=O)Nc2cc(C(F)(F)F)ccc2F)CC1 (stereo not shown) [A154] | 6.51 |
| O=C(Nc1cc(F)cc(C(F)(F)F)c1)N(Cc1ccccc1)C1CCN(CCCc2ccccc2)CC1 [A133] | 3.21 |
| O=C(Nc1cc(F)cc(C(F)(F)F)c1)N(Cc1ccccc1)C1CCN(Cc2nc3ccccc3s2)CC1 [A222] | > 25.2 |
| O=C(c1ccc(Br)cc1)N1CCC(c2nc3ccccc3s2)CC1 [D9] | 21.8 |
| C#CCCCN1CCC(N(Cc2ccccc2NC(=O)CC)C(=O)Nc2cccc(C(F)(F)F)c2)CC1 [A198] | > 12.9 |
| 1-(1-((1H-Pyrazol-3-yl)Methyl)Piperidin-4-yl)-1-Benzyl-3-(3-(Trifluoromethyl)Phenyl)Urea [A180] | 19.8 |
| Cc1cccc(NC(=O)NC2CCN(Cc3ccccc3)CC2)c1 [B57] | > 67.6 |
| CCCC(C)N1CCC(N(Cc2ccccc2)C(=O)Nc2ccc(Br)cc2Cl)CC1 (stereo not shown) [A111] | 2.24 |
| CCCC(C)N1CCC(N(Cc2ccccc2)C(=O)Nc2cccc(OC(C)C)c2)CC1 (stereo not shown) [A132] | 3.17 |

| Compound | IC50 [µM] |
| --- | --- |
| CCCCN1CCC(N(Cc2ccccc2)C(=O)Nc2cccc(CC)c2)CC1 [A63] | 0.413 |
| CCCCN1CCC(N(Cc2ccccc2)C(=O)Nc2cccc(Cl)c2)CC1 [A60] | 0.357 |
| CCCCN1C(C)(C)CC(N(Cc2ccccc2)C(=O)Nc2cccc(C(F)(F)F)c2)CC1(C)C [A188] | 34.3 |
| CC1CN(Cc2ccccc2)CCC1N(C)C(=O)NC1C(=O)N(c2ccccc2)N(C)C1C (stereo not shown) [B27] | > 28.1 |
| O=C(Nc1cc(F)cc(C(F)(F)F)c1)N(Cc1ccccc1)C1CCN(Cc2csc3ccccc23)CC1 [A212] | > 22.5 |
| Cc1cccc(C(=O)N2CCC(c3nc4ccccc4s3)CC2)c1 [D4] | 18 |
| CCCCN1CCC(N(Cc2ccccc2)C(=O)Nc2ccc(C)s2)CC1 [A182] | 21.1 |
| COc1cc(CN2CCC(NC(=O)Nc3ccccc3)CC2)cc(OC)c1OC [B45] | > 65.5 |
| CCCC(C)N1CCC(N(Cc2ccc3c(c2)OCO3)C(=O)Nc2ccc(Cl)c(Cl)c2)CC1 (stereo not shown) [A9] | 0.0788 |
| C#Cc1ccccc1CN1CCC(N(Cc2ccccc2)C(=O)Nc2cc(F)cc(C(F)(F)F)c2)CC1 [A123] | 1.13 |
| C=CC(=O)NCCN(C(=O)Nc1cccc(C(F)(F)F)c1)C1CCN(C(C)CCC)CC1 (stereo not shown) [A187] | 33.8 |
| CCCC(C)N1CCC(N(Cc2ccccc2)C(=O)Nc2ccc3c(c2)OC(F)(F)O3)CC1 (stereo not shown) [A52] | 0.281 |
| CCN1CCC(N(Cc2ccco2)C(=O)Nc2ccc(C)c(F)c2)CC1 [B11] | 23.8 |
| CCCCN1CCC(N(Cc2ccccc2)C(=O)Nc2ccc(C)c(Cl)c2)CC1 [A28] | 0.166 |
| Cc1ccc(CN(C(=O)Nc2cc(F)ccc2F)C2CCN(Cc3ccccc3)CC2)o1 [B93] | > 67.6 |
| N#Cc1cccc(CN2CCC(N(Cc3ccccc3)C(=O)Nc3cc(F)cc(C(F)(F)F)c3)CC2)c1 [A230] | > 28.7 |
| CCCC(C)N1CCC(N(Cc2ccccc2)C(=O)Nc2cc(S(F)(F)(F)(F)F)ccc2F)CC1 (stereo not shown) [A107] | 2.05 |
| C=CC(=O)NCCN(C(=O)Nc1cccc(C(F)(F)F)c1)C1CCN(C(C)CCC)CC1 (stereo not shown) [drawing 835] | 33.8 |
| Cc1ccc(NC(=O)NC2CCN(Cc3ccccc3)CC2)cc1Cl [B59, 1-(1-Benzylpiperidin-4-yl)-3-(3-Chloro-4-Methylphenyl)Urea] | > 67.6 |
| CCCC(C)N1CCC(N(Cc2ccccc2)C(=O)Nc2ccc(F)cc2)CC1 (stereo not shown) [A269] | > 67.2 |
